Data on four compounds can be found in publication PMC6984391, “Anion carriers as potential treatments for cystic fibrosis: transport in cystic fibrosis cells, and additivity to channel-targeting drugs” (Chemical Science, 2019).

“Also recorded” adds a separate entry of the source.

On the set-up of data set [1]: method as in ref [16 and 25], [20], [21], [22], [23], [24], [29] (Reference column). As to conditions: 1H NMR titrations with Bu4N^+Cl^– in DMSO-d6/H2O (200 : 1) at 298 K; ref [16 and 25], [20], [21], [22], [23], [24], [29]; cited from earlier work.
Another data set deals with YFP-CFBE cells. As to the kind of experiment: XTT cell viability assay in YFP-CFBE cells. As to conditions: for cytotoxicity in YFP-CFBE cells (XTT): 1–50 μM, 18 h at 37 °C; for IC50: XTT, 18 h treatment, fit of first order regression (Fig. S23), read-out: half-maximal inhibitory concentration (IC50), cell viability. It counts as cell-based. Here is the method: For cytotoxicity studies, we used YFP-CFBE and YFP-FRT cells. YFP-CFBE cells were seeded in 96-well plates at a density of 5 x 10^4 cells/well and cultured at 37 °C in a humidified atmosphere of 5% CO2. Thirty hours after seeding the cells, different concentrations of anionophores were added to the culture media and the cells were incubated with anionophores for 18 h. To assay cell viability, we used the XTT Cell Proliferation Assay Kit (ATCC) according to the manufacturer’s instructions. The specific absorbance of test samples was measured using a Microplate Spectrophotometer (SpectraMax 190, Molecular Devices, Sunnyvale, CA, USA). In each experiment, multiple replicates (12 – 25 wells from 3 – 5 plates) were tested for each concentration of anionophore. […]
To evaluate the cytotoxicity of anionophores 11, 12, 15 and 19, we treated YFP-CFBE cells with the anionophores (1 – 50 µM) in DMSO for 18 h at 37 °C before assessing cell viability using sodium 2,3, -bis(2-methoxy-4-nitro-5-sulfophenyl)-5-[(phenylamino)-carbonyl]-2H-tetrazolium) (XTT). Figure S23 summarises the resu lts. Although compounds […]
(1 picture or pasted object on this page, not shown here)
On the technique in general: Tetrazolium assays rely on reduction of a dye to a coloured formazan, in cell work by metabolically active cells.

Details of data set [2]: method as in PMID 22461434, PMID 21846096, PMID 29786913. As to conditions: mol% carrier to lipid for 50% Cl^– efflux in 270 s; 490 mM NaCl inside, 490 mM NaNO3 outside; ref [22], [16 and 25]; cited from earlier work.
For a further data set, the system named is YFP-FRT cells. As to the kind of experiment: IncuCyte ZOOM live-cell viability (DRAQ7) in YFP-FRT cells. The format is cell-based. The protocol: For cytotoxicity studies, we used YFP-CFBE and YFP-FRT cells. […]
To evaluate the viability of YFP -FRT cells, we used the IncuCyte ZOOM TM (Essen Bioscience (now Sartorius), Welwyn Garden City, UK) live-cell analysis system. YFP-FRT cells were seeded in 96-well plates at a density of 4000 cells well-1 and allowed to grow for 48 h at 37 °C in a humidified atmosphere of 5% CO2. Then, the YFP-FRT culture media was replaced with fresh culture media containing test anionophores or the vehicle (DMSO 0.5% v v-1) and deep red anthraquinone 7 (DRAQ7; Biostatus, Shepshed, UK) was added following the manufacturer’s instructions before the YFP-FRT cells were transferred to the IncuCyte ZOOMTM. At 2 h intervals over a 24 h period, 4 images of each well on 96-well plates were acquired; the phase contrast images were used to determine the total number of cells per well, while the fluorescence images to identify the number of dead cells with nuclei labelled red by DRAQ7. In each experiment, one data point is the average value from four wells. […]
To investigate further the cytotoxicity of anionophores 12, 15 and 19 we used YFP-FRT cells. As a control we tested compound 11. Using the IncuCyte ZOOMTM (Essen Bioscience) live-cell analysis system and the membrane impermeable far-red fluorescent DNA dye DRAQ7 to label the nuclei of dead cells, we examined the effects of the anionophores 11, 12, 15 and 19 on the viability of YFP -FRT cells over a 24 h period. Consistent with our previous results (Fig.
S23 and ref 10), compound 11 had little effect on cell viability. Only at the highest concentrations tested (30 and 50 µM) and at time points later than 12 h (50 µM) or 14 h (30 µM) did cytotoxicity become apparent ( P < 0.05 vs. DMSO 0.5% v v -1) (Fig. S24). By contrast, the same concentrations of compounds 12, 15 and 19 had cytotoxic effects from 2 h with […]
19 (10 µM) from 8 h onwards (P < 0.05 vs. DMSO 0.5% v v -1) (Fig. S24).

Setting [3] is: 10 μM, 24 h period, P < 0.05 vs. DMSO.
The mark [4] stands for this setting: 30 μM, 24 h period, P < 0.05 vs. DMSO.
Where [5] appears, read: 50 μM, 24 h period, P < 0.05 vs. DMSO.

`FC(F)(F)c1cc(NC(=S)NCCN(CCNC(=S)Nc2cc(C(F)(F)F)cc(C(F)(F)F)c2)CCNC(=S)Nc2cc(C(F)(F)F)cc(C(F)(F)F)c2)cc(C(F)(F)F)c1` [Compound 19]: the “K a to Cl^– in DMSO” value in data set [1] is recorded as 4.4 × 10^3 M^–1. For the same compound, the “cytotoxicity in YFP-CFBE cells (XTT)” value with YFP-CFBE cells is recorded as “some cytotoxicity; also recorded: strongest effect”. Also, the IC50 in the data set on YFP-CFBE cells amounted to 38 µM. Also, in data set [2], the “EC50, 270 s” value is 0.042 mol%. Moreover, the “toxicity (IncuCyte ZOOM)” value in the data set on YFP-FRT cells (10 μM) was “some cell death”. In addition, the “time points at which cytotoxicity is apparent” value (“time points” below) in the data set on YFP-FRT cells (setting [3]) was ≥ 8 h; in the data set on YFP-FRT cells (setting [4]), ≥ 2 h; in the data set with YFP-FRT cells (setting [5]), ≥ 2 h.
`CCOC(=O)[C@]12CC[C@@H](NC(=S)Nc3ccc([N+](=O)[O-])cc3)C[C@@H]1C[C@@H](NC(=S)Nc1ccc([N+](=O)[O-])cc1)CC2` [Compound 12]: the “time points” value is ≥ 2 h with YFP-FRT cells (rat, 24 h, 30 µM) and ≥ 2 h with YFP-FRT cells (rat, 24 h, 50 µM).
With `FC(F)(F)c1ccc(NC(=S)NCCN(CCNC(=S)Nc2ccc(C(F)(F)F)cc2)CCNC(=S)Nc2ccc(C(F)(F)F)cc2)cc1` [Compound 18], in data set [1], the “K a to Cl^– in DMSO” value is recorded as 9.6 × 10^2 M^–1. Also, the “EC50, 270 s” value in data set [2] was 0.077 mol%.
In the case of `CCOC(=O)[C@]12CC[C@@H](NC(=S)Nc3cc(C(F)(F)F)cc(C(F)(F)F)c3)C[C@@H]1C[C@@H](NC(=S)Nc1cc(C(F)(F)F)cc(C(F)(F)F)c1)CC2` [Compound 15], the “K a to Cl^– in DMSO” value in data set [1] is listed as 2.4 × 10^3 M^–1. Further, the “cytotoxicity in YFP-CFBE cells (XTT)” value in the data set with YFP-CFBE cells is recorded as “some cytotoxicity”. For the same compound, the IC50 in the data set with YFP-CFBE cells is > 50 µM. Moreover, the “time points” value with YFP-FRT cells (5 μM, 24 h period, P < 0.05 vs. DMSO) was ≥ 2 h; in the data set on YFP-FRT cells (setting [3]), ≥ 2 h; in the data set with YFP-FRT cells (setting [4]), ≥ 2 h; in the data set with YFP-FRT cells (setting [5]), ≥ 2 h. Besides, in the data set with YFP-FRT cells (10 μM), the “toxicity (IncuCyte ZOOM)” value is given as “some cell death”.
